Reference: the NIST ThermoML archive (doi:10.1016/j.jct.2013.09.010)
Values joined by “and” are separate entries in the source; they are usually repeats but may differ in a detail not shown here. Equal values may be shown once.

Tests used:
[1] = Liquid, Vibrating tube method
[2] = molar heat capacity at constant pressure; conditions: 101 kPa, Liquid, Small sample (50 mg) DSC

CCCCC(=O)[O-].C[NH2+]CCO [2-hydroxy-N-methylethanaminium pentanoate]
mass density [kg/m3], [1]
Conditions | 298.15 K | 308.15 K | 318.15 K | 328.15 K | 338.15 K | 348.15 K | 358.15 K
100 kPa | 1009.33 | 1002.78 | 996.28 | 989.85 | 983.48 | 977.17 | 970.92
5000 kPa | 1011.62 | 1005.23 | 998.89 | 992.6 | 986.35 | 980.15 | 974
10000 kPa | 1014.08 | 1007.73 | 1001.45 | 995.24 | 989.11 | 983.05 | 977.05
15000 kPa | 1016.41 | 1010.14 | 1003.96 | 997.85 | 991.83 | 985.88 | 980.01
20000 kPa | 1018.67 | 1012.49 | 1006.39 | 1000.37 | 994.43 | 988.57 | 982.79
25000 kPa | 1020.85 | 1014.74 | 1008.72 | 1002.79 | 996.97 | 991.23 | 985.59

[2]
Conditions | molar heat capacity at constant pressure
283.15 K | 384.8 J/K/mol
287.15 K | 396.1 J/K/mol and 394.2 J/K/mol
288.15 K | 395.6 J/K/mol [middle of 5 runs]
289.15 K | 396 J/K/mol [middle of 4 runs]
290.15 K | 396.8 J/K/mol [middle of 4 runs]
291.15 K | 397.4 J/K/mol [middle of 4 runs]
292.15 K | 397.9 J/K/mol [middle of 4 runs]
293.15 K | 397.7 J/K/mol [middle of 5 runs]
294.15 K | 398.4 J/K/mol [middle of 4 runs]
295.15 K | 399 J/K/mol [middle of 4 runs]
296.15 K | 399.3 J/K/mol and 397.9 J/K/mol and 400.7 J/K/mol
297.15 K | 400 J/K/mol [middle of 4 runs]
298.15 K | 400.6 J/K/mol [middle of 4 runs]
299.15 K | 402.3 J/K/mol and 401.1 J/K/mol and 399.5 J/K/mol
300.15 K | 401.8 J/K/mol [middle of 4 runs]
301.15 K | 402.3 J/K/mol [middle of 4 runs]
302.15 K | 402.7 J/K/mol [middle of 4 runs]
303.15 K | 402.3 J/K/mol [middle of 5 runs]
304.15 K | 403.2 J/K/mol [middle of 4 runs]
305.15 K | 403.6 J/K/mol [middle of 4 runs]
306.15 K | 405 J/K/mol and 403 J/K/mol and 402.3 J/K/mol
307.15 K | 402.7 J/K/mol
308.15 K | 401.6 J/K/mol and 403 J/K/mol
309.15 K | 403.4 J/K/mol
310.15 K | 403.8 J/K/mol
311.15 K | 404.3 J/K/mol
312.15 K | 404.6 J/K/mol
313.15 K | 405 J/K/mol and 405.2 J/K/mol
314.15 K | 405.5 J/K/mol
315.15 K | 405.7 J/K/mol
316.15 K | 406.1 J/K/mol
317.15 K | 406.1 J/K/mol
318.15 K | 408.9 J/K/mol and 406.4 J/K/mol
319.15 K | 406.8 J/K/mol
320.15 K | 407.1 J/K/mol
321.15 K | 407.5 J/K/mol
322.15 K | 407.8 J/K/mol
323.15 K | 412.8 J/K/mol and 408.2 J/K/mol
324.15 K | 408.5 J/K/mol
325.15 K | 408.9 J/K/mol
328.15 K | 416.7 J/K/mol
333.15 K | 420.6 J/K/mol

CCC(=O)[O-].C[NH2+]CCO [2-hydroxy-N-methylethanaminium propionate]
mass density [kg/m3], [1]
Conditions | 100 kPa | 2000 kPa | 3000 kPa | 5000 kPa | 10000 kPa | 15000 kPa | 20000 kPa | 25000 kPa
298.15 K | 1065.75 | 1066.51 | 1066.95 | 1067.8 | 1069.86 | 1071.89 | 1073.87 | 1075.79
303.15 K | 1062.59 | 1063.37 | 1063.82 | 1064.69 | 1066.79 | 1068.87 | 1070.88 | 1072.86
308.15 K | 1059.41 | 1060.21 | 1060.67 | 1061.55 | 1063.7 | 1065.82 | 1067.88 | 1069.9
313.15 K | 1056.21 | 1057.03 | 1057.51 | 1058.4 | 1060.6 | 1062.76 | 1064.86 | 1066.92
318.15 K | 1052.99 | 1053.83 | 1054.32 | 1055.23 | 1057.47 | 1059.68 | 1061.82 | 1063.93
323.15 K | 1049.76 | 1050.61 | 1051.11 | 1052.04 | 1054.32 | 1056.58 | 1058.76 | 1060.91
328.15 K | 1046.5 | 1047.37 | 1047.89 | 1048.84 | 1051.16 | 1053.47 | 1055.68 | 1057.87
333.15 K | 1043.23 | 1044.11 | 1044.64 | 1045.61 | 1047.97 | 1050.33 | 1052.59 | 1054.82
338.15 K | 1039.93 | 1040.84 | 1041.38 | 1042.36 | 1044.77 | 1047.17 | 1049.47 | 1051.74
343.15 K | 1036.62 | 1037.54 | 1038.1 | 1039.1 | 1041.55 | 1043.99 | 1046.33 | 1048.65
348.15 K | 1033.29 | 1034.23 | 1034.8 | 1035.81 | 1038.3 | 1040.8 | 1043.17 | 1045.54
353.15 K | 1029.94 | 1030.9 | 1031.48 | 1032.51 | 1035.04 | 1037.58 | 1040 | 1042.4
358.15 K | 1026.57 | 1027.55 | 1028.14 | 1029.19 | 1031.76 | 1034.35 | 1036.8 | 1039.25

[2]
Conditions | molar heat capacity at constant pressure
287.15 K | 322.8 J/K/mol
288.15 K | 324.3 J/K/mol and 323.1 J/K/mol and 322.8 J/K/mol
289.15 K | 324.5 J/K/mol [middle of 4 runs]
290.15 K | 324.8 J/K/mol [middle of 5 runs]
291.15 K | 324.9 J/K/mol [middle of 5 runs]
292.15 K | 325.7 J/K/mol [middle of 5 runs]
293.15 K | 326.1 J/K/mol [middle of 5 runs]
294.15 K | 326.6 J/K/mol [middle of 4 runs]
295.15 K | 327 J/K/mol [middle of 4 runs]
296.15 K | 327.2 J/K/mol [middle of 4 runs]
297.15 K | 327.5 J/K/mol [middle of 5 runs]
298.15 K | 327.9 J/K/mol [middle of 4 runs]
299.15 K | 328.2 J/K/mol [middle of 5 runs]
300.15 K | 328.7 J/K/mol [middle of 5 runs]
301.15 K | 329.1 J/K/mol [middle of 5 runs]
302.15 K | 329.4 J/K/mol [middle of 5 runs]
303.15 K | 329.7 J/K/mol [middle of 5 runs]
304.15 K | 329.9 J/K/mol [middle of 4 runs]
305.15 K | 330 J/K/mol [middle of 4 runs]
306.15 K | 330.7 J/K/mol and 330.2 J/K/mol and 329.6 J/K/mol
307.15 K | 329.9 J/K/mol
308.15 K | 330.2 J/K/mol
309.15 K | 330.5 J/K/mol
310.15 K | 330.9 J/K/mol
311.15 K | 331.2 J/K/mol
312.15 K | 331.6 J/K/mol
313.15 K | 332.1 J/K/mol
314.15 K | 332.4 J/K/mol
315.15 K | 332.7 J/K/mol
316.15 K | 332.8 J/K/mol
317.15 K | 333 J/K/mol
318.15 K | 333.1 J/K/mol
319.15 K | 333.4 J/K/mol
320.15 K | 333.6 J/K/mol
321.15 K | 333.9 J/K/mol
322.15 K | 334 J/K/mol
323.15 K | 334.5 J/K/mol
324.15 K | 334.9 J/K/mol
325.15 K | 335.4 J/K/mol
326.15 K | 335.8 J/K/mol

CCCC(=O)[O-].C[NH2+]CCO [N-methyl-2-hydroxyethylammonium butanoate]
mass density [kg/m3], [1]
Conditions | 298.15 K | 308.15 K | 318.15 K | 328.15 K | 338.15 K | 348.15 K | 358.15 K
100 kPa | 1035.29 | 1028.57 | 1021.88 | 1015.21 | 1008.57 | 1001.95 | 995.35
5000 kPa | 1037.49 | 1030.87 | 1024.28 | 1017.71 | 1011.17 | 1004.66 | 998.16
10000 kPa | 1039.66 | 1033.14 | 1026.66 | 1020.2 | 1013.77 | 1007.36 | 1000.98
15000 kPa | 1041.88 | 1035.43 | 1029.02 | 1022.64 | 1016.3 | 1010 | 1003.73
20000 kPa | 1043.97 | 1037.61 | 1031.28 | 1024.99 | 1018.73 | 1012.5 | 1006.31
25000 kPa | 1046.02 | 1039.73 | 1033.49 | 1027.31 | 1021.17 | 1015.08 | 1009.04

[2]
Conditions | molar heat capacity at constant pressure
286.15 K | 357.3 J/K/mol
287.15 K | 358.4 J/K/mol
288.15 K | 357 J/K/mol
290.15 K | 358.9 J/K/mol
291.15 K | 360.7 J/K/mol
292.15 K | 356.8 J/K/mol
293.15 K | 358.6 J/K/mol
294.15 K | 361 J/K/mol and 360.1 J/K/mol
295.15 K | 358.1 J/K/mol and 360.9 J/K/mol
296.15 K | 361.7 J/K/mol and 357.1 J/K/mol
297.15 K | 362.7 J/K/mol and 358.9 J/K/mol
298.15 K | 363.2 J/K/mol and 359.6 J/K/mol
299.15 K | 364 J/K/mol and 360.7 J/K/mol
300.15 K | 364.6 J/K/mol and 361.2 J/K/mol
301.15 K | 361.7 J/K/mol and 365.3 J/K/mol
302.15 K | 362.2 J/K/mol and 365.8 J/K/mol
303.15 K | 362.3 J/K/mol and 366.4 J/K/mol
304.15 K | 362.8 J/K/mol and 367.1 J/K/mol
305.15 K | 363.3 J/K/mol and 367.6 J/K/mol
306.15 K | 363.8 J/K/mol and 368 J/K/mol
307.15 K | 364.3 J/K/mol and 368.5 J/K/mol
308.15 K | 364.8 J/K/mol and 368.9 J/K/mol
309.15 K | 364.9 J/K/mol and 369.4 J/K/mol
310.15 K | 365.4 J/K/mol and 369.7 J/K/mol
311.15 K | 365.8 J/K/mol and 370.3 J/K/mol
312.15 K | 366.4 J/K/mol and 370.8 J/K/mol
313.15 K | 367.2 J/K/mol and 371.5 J/K/mol
314.15 K | 368 J/K/mol and 372.1 J/K/mol
315.15 K | 368.7 J/K/mol and 372.8 J/K/mol
316.15 K | 369.2 J/K/mol and 373.6 J/K/mol
317.15 K | 369.5 J/K/mol and 374.3 J/K/mol
318.15 K | 369.7 J/K/mol and 374.7 J/K/mol
319.15 K | 370 J/K/mol and 375.4 J/K/mol
320.15 K | 370.2 J/K/mol and 375.7 J/K/mol
321.15 K | 370.7 J/K/mol and 376.2 J/K/mol
322.15 K | 371.2 J/K/mol and 376.9 J/K/mol
323.15 K | 371.5 J/K/mol and 377.5 J/K/mol
324.15 K | 372.1 J/K/mol and 378.2 J/K/mol
325.15 K | 372.8 J/K/mol and 378.7 J/K/mol
326.15 K | 373.8 J/K/mol and 379.3 J/K/mol
327.15 K | 374.7 J/K/mol and 380.1 J/K/mol
328.15 K | 375.4 J/K/mol and 380.6 J/K/mol
329.15 K | 375.7 J/K/mol and 381.3 J/K/mol
330.15 K | 375.6 J/K/mol and 381.8 J/K/mol
331.15 K | 375.4 J/K/mol and 382.1 J/K/mol
332.15 K | 375.2 J/K/mol and 382.9 J/K/mol
333.15 K | 374.9 J/K/mol and 383.1 J/K/mol
334.15 K | 375.2 J/K/mol and 383.9 J/K/mol
335.15 K | 375.7 J/K/mol and 384.7 J/K/mol
336.15 K | 377.2 J/K/mol
